“Also recorded” adds a separate entry of the source.
Legend:
[1] = molecular target: T1, Sestrin2 (Homo sapiens, UniProt P58004); test: Cellular thermal shift assay (CETSA), intracellular Sestrin2 in HEK-293T cells; format: cell-based; settings: 30 min, leucine-starved HEK293T cells, read-out: increase of melting temperature of intracellular Sestrin2
T1 sequence (P58004 1-480): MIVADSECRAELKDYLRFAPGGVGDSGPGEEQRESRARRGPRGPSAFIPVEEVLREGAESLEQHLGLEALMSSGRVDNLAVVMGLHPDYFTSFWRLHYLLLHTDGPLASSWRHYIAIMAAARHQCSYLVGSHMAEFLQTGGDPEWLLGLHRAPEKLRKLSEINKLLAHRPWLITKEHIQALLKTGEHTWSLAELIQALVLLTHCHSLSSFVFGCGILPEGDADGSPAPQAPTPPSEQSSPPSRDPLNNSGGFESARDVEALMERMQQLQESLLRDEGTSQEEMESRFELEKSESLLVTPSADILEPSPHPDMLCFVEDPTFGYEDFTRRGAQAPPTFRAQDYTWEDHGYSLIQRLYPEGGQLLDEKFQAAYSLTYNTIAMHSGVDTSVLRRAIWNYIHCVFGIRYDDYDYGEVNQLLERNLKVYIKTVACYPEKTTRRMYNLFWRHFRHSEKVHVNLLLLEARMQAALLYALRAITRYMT
Procedure: Expression of flag-WDR24 allows for immunoprecipitation of the Sestrin2/GATOR2 complex from amino acid-starved cells with an anti-flag antibody. […] Finally, to determine whether Sestrins and the GATOR pathway are required for NV-5138 activity, HEK-293T cells null for all three Sestrin isoforms or the GATOR1 component Nprl3 were obtained.
CETSA was performed as previously described. […] Cells were then collected, centrifuged for 3 min at 300 g at room-temperature (RT), washed with PBS, centrifuged again, and finally resuspended in 1 ml of RT PBS containing EDTA-free protease-inhibitor tablets (Roche). 100 µl of each cell suspension was heated at the noted temperature for 3 min, samples were then placed on the bench at RT for 3 min before being flash-frozen in liquid nitrogen. To lyse the cells, samples were put through two cycles of freeze-thawing followed by centrifugation at 20,000 g for 20 min at 4 °C. 80 µl of the resulting supernatant was denatured and, resolved by SDS-PAGE. Membranes were imaged using the LI-COR imaging system. Antibodies used are listed in Supplementary Information.

[2] = molecular target: T2, BCAT2 (Homo sapiens, UniProt O15382); test: BCAT enzymatic assay (substrate test), BCAT2; format: biochemical; settings: NADH oxidation at 340 nm; tested up to 1.5 mM
T2 construct: purchased OriGene TP300625
T2 sequence (O15382 28-392): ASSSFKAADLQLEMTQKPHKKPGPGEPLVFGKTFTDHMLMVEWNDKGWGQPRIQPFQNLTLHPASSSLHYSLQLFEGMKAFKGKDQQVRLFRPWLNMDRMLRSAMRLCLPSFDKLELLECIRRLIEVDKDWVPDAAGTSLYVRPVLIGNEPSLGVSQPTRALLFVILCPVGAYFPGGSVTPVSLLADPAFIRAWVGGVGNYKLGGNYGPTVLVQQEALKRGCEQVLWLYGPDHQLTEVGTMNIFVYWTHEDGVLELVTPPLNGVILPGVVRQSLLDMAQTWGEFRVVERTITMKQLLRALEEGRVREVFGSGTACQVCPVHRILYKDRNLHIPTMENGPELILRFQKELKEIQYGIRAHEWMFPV
Procedure: (§1) BCAT exists in two isoforms, mitochondrial BCAT2 which is ubiquitously expressed, and cytosolic BCAT1, which is predominantly expressed in embryonic tissues and the adult brain. To determine whether NV-5138 is a substrate for BCAT isoforms, we established an in vitro enzymatic assay using purified BCAT1 and BCAT2 and performed the assay in the forward direction as described. […] The disappearance of absorbance at 340 nm due to NADH oxidation is measured continuously over time.
(§2) The assay buffer was dispensed into a 96-well plate and brought up to 37 °C for 10 min before adding BCAT1 or BCAT2 (72 ng) in 0.1 M potassium phosphate buffer. Absorbance at 340 nm was then read every minute for 30 min at RT using an Envision plate reader. Source of each reagents used can be found in Supplementary Information.

[3] = molecular target: T3, BCAT1 (Homo sapiens, UniProt P54687); test: BCAT enzymatic assay (substrate test), BCAT1; format: biochemical; settings: NADH oxidation at 340 nm; tested up to 1.5 mM
T3 construct: purchased OriGene TP319229
T3 sequence (P54687 1-386): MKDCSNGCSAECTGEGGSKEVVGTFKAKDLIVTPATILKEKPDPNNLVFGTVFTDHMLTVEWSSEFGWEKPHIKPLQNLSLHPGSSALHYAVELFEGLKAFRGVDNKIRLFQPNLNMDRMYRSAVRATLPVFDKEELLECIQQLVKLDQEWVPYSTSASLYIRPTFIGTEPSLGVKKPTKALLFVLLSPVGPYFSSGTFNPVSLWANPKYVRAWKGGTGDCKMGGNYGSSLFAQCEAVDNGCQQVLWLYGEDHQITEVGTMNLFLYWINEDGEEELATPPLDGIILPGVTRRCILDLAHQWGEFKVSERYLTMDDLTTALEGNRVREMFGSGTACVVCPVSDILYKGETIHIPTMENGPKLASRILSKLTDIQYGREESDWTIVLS
Procedure: as §1, §2

[4] = tested on: mTORC1; test: mTORC1 activation in rat brain after oral dosing (phosphorylated S6 S240/244 immunoblot); format: in vivo; settings: for mTORC1 activation in brain (pS6 increase): 1 h after single oral dose, NV-5138 160 mg/kg, leucine 500 mg/kg; for increase in S240/244 pS6 versus vehicle: synaptoneurosomes from pre-frontal cortex
From the text: Given the favorable PK properties of NV-5138, we wished to determine whether oral administration of NV-5138 could activate mTORC1 in the brain and other organs of ad libitum fed rats using the mTORC1 downstream substrate phosphorylated S6 (^S240/244pS6) as a surrogate PD parameter for the activation status of the complex.
After compound administration, animals were sacrificed by decapitation using a guillotine, immediately Specific regions of the brain were quickly microdissected, tissues collected, and flash frozen in liquid nitrogen. Peripheral tissues and all brain were homogenized using MP homogenizer in Lysis Buffer (Cell lysis buffer: 1% Triton X-100, 50 mM HEPES pH 7.4, 100 mM NaCl, 2 mM EDTA, 10 mM Beta-glycerophosphate, 10 mM Sodium pyrophosphate, and 1 protease inhibitor) at 4 °C. Synaptic proteins and mTORC1 analyses in each brain region were conducted on crude synaptoneurosome preparations as previously described. Equal amounts of total protein from each sample were denatured and, resolved by SDS-PAGE. Membranes were imaged using the LI-COR imaging system. Proteins levels are normalized to tubulin or GAPDH levels and further normalized to vehicle treated rats for each tissue. Antibodies used are listed in Supplementary Information.

[5] = 160 mg/kg PO, 1 h, synaptoneurosomes

ΔTm at 300 µM [1] [°C]	Compound	transamination by BCAT2 [2]	transamination by BCAT1 [3]	mTORC1 activation in cerebellum [4, 5]	mTORC1 activation in striatum, hippocampus, neocortex [4, 5]	mTORC1 activation in brain (pS6 increase) ([4]; ad libitum fed rats)	time of peak mTORC1 activation in brain ([4]; single 160 mg/kg PO)	time until mTORC1 activation back to baseline/vehicle levels ([4]; single 160 mg/kg PO) [h]	increase in S240/244 pS6 versus vehicle ([4]; 1 h after 80 mg/kg PO)	increase in S240/244 pS6 versus vehicle ([4]; 1 h after 160 mg/kg PO, ad libitum fed rats)
~2	CC(C)(C[C@H](N)C(=O)O)C(F)F [NV-5138, (S)-2-amino-5,5-difluoro-4,4-dimethylpentanoic acid]	no decrease in absorption at 340 nm; also recorded: did not observe any transamination	no decrease in absorption at 340 nm; also recorded: did not observe any transamination	but not the cerebellum	significant activation	~ 2 fold	~ 3 h	≤ 7	trending increase	~ 2 fold
~2	CC(C)C[C@H](N)C(=O)O [Leucine, L-leucine, reference compound]	transaminated by BCAT1 and BCAT2	transaminated by BCAT1 and BCAT2			no activation				

Reference: publication PMC6412019, “Discovery of NV-5138, the first selective Brain mTORC1 activator” (Scientific Reports, 2019)
